Experimental data as given in patent US5565479A, “Condensed thiazole derivative, production process thereof and pharmaceutical composition thereof” (Yamanouchi Pharmaceutical Co., Ltd., priority 1992, dated 1996).
Where a name gives a salt, the structure may show the parent alone.

Legend:
5-HT3 receptor [1] = molecular target: T1, 5-HT3 receptor (Cavia porcellus, UniProt O70212); experiment: 5-HT3 receptor agonistic activity: contractile response of isolated guinea pig distal colon strips; type: cell-based; details: read-out: Max. response
T1 construct: Distal colons were excised from male Hartley guinea pigs; from tissue; host or cells: distal colon strips of male Hartley guinea pigs
T1 sequence (O70212 20-490): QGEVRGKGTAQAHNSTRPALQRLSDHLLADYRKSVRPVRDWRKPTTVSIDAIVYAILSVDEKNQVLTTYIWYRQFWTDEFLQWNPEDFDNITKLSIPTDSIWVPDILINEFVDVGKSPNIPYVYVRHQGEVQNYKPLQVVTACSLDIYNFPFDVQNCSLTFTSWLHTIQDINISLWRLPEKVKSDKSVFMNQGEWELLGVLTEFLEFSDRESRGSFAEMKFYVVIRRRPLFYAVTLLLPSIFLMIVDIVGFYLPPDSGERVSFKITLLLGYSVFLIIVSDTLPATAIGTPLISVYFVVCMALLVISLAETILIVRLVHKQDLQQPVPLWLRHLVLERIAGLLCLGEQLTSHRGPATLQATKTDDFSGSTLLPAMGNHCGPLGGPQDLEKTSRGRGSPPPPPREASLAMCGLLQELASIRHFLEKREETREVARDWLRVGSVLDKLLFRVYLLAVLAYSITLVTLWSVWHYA
Text: Distal colons were excised from male Hartley guinea pigs (500 to 800 g) to prepare strips of about 20 mm.
Each strip was longitudinally suspended in a Magnus tube, and contractile response was isometrically measured.

5-HT3 receptor [2] = experiment: Receptor binding experiment
ICR male mice = experiment: Toxicity after i.v. administration to ICR male mice; type: in vivo; details: 100 mg/kg i.v., 8 to 9 weeks of age, n=5 to 6
Text: Being low in toxicity, the compounds of the present invention are suitable for use as medicines.

SMILES | Emax (5-HT3 receptor [1]) [%] | affinity for the 5-HT3 receptor (5-HT3 receptor [2]) | side effects (ICR male mice)
c1ccc2c(c1)Cc1sc(Cc3c[nH]cn3)nc1-2 [Example 1, 2-(4-imidazolylmethyl)-8H-indeno[1,2-d]thiazole] | 89.9 | high affinity | do not cause serious grave side effects
O=C(O)/C=C/C(=O)O.c1ccc2c(c1)CCc1sc(Cc3c[nH]cn3)nc1-2 [Example 3, 2-(4-Imidazolylmethyl)-4,5-dihydronaphtho[1,2-d]thiazole fumarate] | 80.3 | – | do not cause serious grave side effects
c1ccc2c(c1)CCCc1sc(Cc3c[nH]cn3)nc1-2 [Example 4, 2-(4-Imidazolylmethyl)-5,6-dihydro-4H-benzo[6,7]-cyclohepto[1,2-d]thiazole fumarate] | 50 | – | –
c1ccc2c(c1)Cc1sc(Cn3ccnc3)nc1-2 [Example 10, 2-(1-Imidazolylmethyl)-8H-indeno[1,2-d]thiazole fumarate] | 60.9 | – | –
Cn1cncc1Cc1nc2c(s1)Cc1ccccc1-2 [Example 15, 2-[(1-Methyl-5-imidazolyl)methyl]-8H-indeno[1,2-d]thiazole] | 42.6 | – | –
c1ccc2c(c1)ccc1sc(Cn3ccnc3)nc12 [Example 30, 2-(1-imidazolylmethyl)naphtho[1,2-d]thiazole] | 78.2 | – | –
